Measurements from patent US20240216476A1, “COMBINATION OF BITTER RECEPTOR AGONIST AND GUT-SIGNALING COMPOUND” (AARDVARK THERAPEUTICS, INC., priority 2021, published 2024).
Read-outs that look alike come from different tables or passages of the source. Marks after values point to notes of the source that are not given here.

Columns and labels:
[1] = system: high-fat diet-induced obese (DIO) mice; format: in vivo; conditions: in words; for high-density lipoprotein (HDL) levels: vs vehicle controls
Method: This Example provides the results from an in vivo study of denatonium acetate and sitagliptin in high-fat diet-induced obese (DIO) mice. C57BL/6NTac mice (at least 12 weeks of age) were fed with a high fat diet. All mice were dosed orally by gavage as (a) Vehicle group (N=15) dosed with distilled water BID, (b) DA group (N=15) dosed at 75 mg/kg (denatonium weight) BID; (c) sitagliptin group (N=15) dosed by gavage with 10 mg/kg QD; and (d) DA+ sitagliptin group (N=15) treated with DA at 75 mg/kg (denatonium based weight) BID and sitagliptin at 10 mg/kg by gavage QD. The groups were dosed for 8 weeks followed by a 5-7 day […] period. Body weight and body weight changes were measured three times per week. Serum biomarker levels for blood glucose (after fasting 6-8 hours), blood insulin, percentage of blood HvA1c, HDL, LDL, total triglycerides (TG), total cholesterol (TC) and bile acid were measured twice during the study at day 28 and at the end (day 56) of the study. Cumulative food intake and water consumption for each animal was measured.

[2] = cited from earlier work; for Effect on Body Weight (placebo-adjusted change from baseline) / Effect on HbA1c (placebo-adjusted change from baseline) / Effect on Body Weight (placebo-adjusted change from baseline), percent: QD 24-26 weeks
ob/ob mice = conditions: sitagliptin 0.0018% in diet 12 weeks; alogliptin 42.2 mg/kg/day 28 days; cited from earlier work
[3] = system: C57Bl/6J mice fed with high-fat diet; conditions: sitagliptin 0.004% in diet 12 weeks; vildagliptin 30 mg/kg/day 7 weeks; alogliptin 0.03% (wt/wt) in diet for life span; cited from earlier work
[4] = 18 weeks, on metformin; saxagliptin 5 mg daily; sitagliptin 100 mg; cited from earlier work
[5] = in words; cited from earlier work
[6] = semaglutide 3 mg, sitagliptin 100 mg, saxagliptin 2.5 mg, vildagliptin 50 mg, alogliptin 12.5 mg, linagliptin 5 mg
[7] = semaglutide 7 mg, sitagliptin 200 mg, saxagliptin 5 mg, vildagliptin 100 mg, alogliptin 25 mg
[8] = sitagliptin alone or in combination compared with controls, meta-analysis results

N[C@@H](CC(=O)N1CCn2c(nnc2C(F)(F)F)C1)Cc1cc(F)c(F)cc1F [Sitagliptin, (2R)-4-oxo-4-[3-(trifluoromethyl)-5,6-dihydro[1,2,4]triazolo[4,3-a]pyrazin-7(8H)-yl]-1-(2,4,5-trifluorophenyl)butan-2-amine]
high-density lipoprotein (HDL) levels ([1]; FIG. 22A): significantly decreased high-density lipoprotein (HDL) levels | high-density lipoprotein (HDL) levels ([1]; day 56 (FIG. 22B)): significantly decreased high-density lipoprotein (HDL) levels | weight loss ([1]; 56-day study summary): no weight loss effect was seen with longer duration dosing | effect on body weight (relative body weight percentage and relative body weight change) ([1]; DA 75 mg/kg BID, sitagliptin 10 mg/kg QD by gavage, 8 weeks): least effect on body weight | Effect on Body Weight (placebo-adjusted change from baseline) [2, 6]: 100 mg: +0.9 kg | Effect on HbA1c (placebo-adjusted change from baseline) [2, 6]: 100 mg: −0.79% | Effect on Body Weight (placebo-adjusted change from baseline), percent ([2]; semaglutide 3 mg, sitagliptin 100 mg, saxagliptin 2.5 mg, vildagliptin 50 mg): (+1.1%) | Effect on Body Weight (placebo-adjusted change from baseline) [2, 7]: 200 mg: +1.0 kg | Effect on HbA1c (placebo-adjusted change from baseline) [2, 7]: 200 mg: −0.94% | Effect on Body Weight (placebo-adjusted change from baseline), percent ([2]; semaglutide 7 mg, sitagliptin 200 mg, saxagliptin 5 mg, vildagliptin 100 mg): (+1.2%) | HDL-C, weighted mean difference (WMD) [2, 8]: 0.05 mmol/L) ^$$$ | serum TG, weighted mean difference [WMD] [2, 8]: [WMD] −0.24 mmol/L | Control-adjusted Percent Change in Fasting Blood Glucose (ob/ob mice): −23.4%* | Control-adjusted Percent Change in Insulin Level (ob/ob mice): +148%* | Control-adjusted Percent Change in TG Level (ob/ob mice): −43.2%* | Control-adjusted Percent Change in Body Weight Gain [3]: −45.8%* | Control-adjusted Percent Change in Fasting Blood Glucose [3]: −20.9%* | Control-adjusted Percent Change in Insulin Level [3]: −41.7% | reductions in hemoglobin A1c (HbA1c) [4]: −0.26% | excretion and metabolism [5]: renally excreted with minimal liver metabolism (via CYP3A4 and CYP2C8)
